The target of data set [1] is DPP-IV (Homo sapiens, UniProt P27487). Nature of the data set: Stability to DPP-IV in vitro. To be noted: isolated DPP-IV enzyme, pH 7.4.
Description: DPP-IV (5 mU, 900 μL) was added, and the solutions were incubated at 37 ° C. At the indicated time points, 100 μL was removed from the reaction mixture, and reactions were terminated by the addition of 5 μL of 10% (v/v) TFA. Each sample was analyzed by MALDI-TOF MS and RP-HPLC as described.
The conditions of data set [2]: from U.S. Pat. No. 5,118,666; cited from earlier work.
Data set [3] relates to cloned human GLP-1 receptor. Nature of the data set: cAMP formation in a cell line expressing the cloned human GLP-1 receptor. As to conditions: 2 h at 37 °C, cAMP by scintillation proximity assay; read-out: Cell based cAMP ED50. Background: Changes in cAMP serve as a functional read-out for many G protein-coupled receptors.

We go through four compounds from patent US9487570B2, “Glucagon like peptide analogs, composition, and method of use” (BETTA PHARMACEUTICALS CO., LTD, priority 2010, dated 2016).

Sequence of DPP-IV (P27487 whole entry, species assumed): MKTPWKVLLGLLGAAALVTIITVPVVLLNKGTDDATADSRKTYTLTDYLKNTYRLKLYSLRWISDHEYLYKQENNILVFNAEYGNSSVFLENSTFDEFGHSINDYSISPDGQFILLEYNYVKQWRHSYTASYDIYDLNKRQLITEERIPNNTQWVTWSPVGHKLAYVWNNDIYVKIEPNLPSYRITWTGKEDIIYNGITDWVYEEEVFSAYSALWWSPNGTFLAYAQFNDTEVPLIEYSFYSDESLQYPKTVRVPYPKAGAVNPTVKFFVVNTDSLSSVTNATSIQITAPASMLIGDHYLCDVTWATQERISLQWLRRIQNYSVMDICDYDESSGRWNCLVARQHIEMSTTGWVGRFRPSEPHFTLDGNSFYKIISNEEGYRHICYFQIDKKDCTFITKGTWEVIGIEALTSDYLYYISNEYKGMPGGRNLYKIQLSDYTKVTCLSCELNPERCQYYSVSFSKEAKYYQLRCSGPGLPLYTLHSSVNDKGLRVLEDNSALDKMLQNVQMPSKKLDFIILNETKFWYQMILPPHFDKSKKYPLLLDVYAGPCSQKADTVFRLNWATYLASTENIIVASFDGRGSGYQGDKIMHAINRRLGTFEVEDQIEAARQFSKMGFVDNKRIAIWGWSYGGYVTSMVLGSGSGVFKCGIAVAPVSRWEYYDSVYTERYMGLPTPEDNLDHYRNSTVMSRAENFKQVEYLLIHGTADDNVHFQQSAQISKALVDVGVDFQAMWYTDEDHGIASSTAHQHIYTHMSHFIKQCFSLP

Usually share remaining stands for the share of the starting amount still present when the sample was taken. Read a high share remaining as greater stability. Take `CCCCCCCCCCCCCCCC(=O)N[C@@H](CCC(=O)NCCCC[C@H](NC(=O)[C@H](C)NC(=O)[C@H](C)NC(=O)[C@H](CCC(N)=O)NC(=O)CNC(=O)[C@H](CCC(=O)O)NC(=O)[C@H](CC(C)C)NC(=O)[C@H](Cc1ccc(O)cc1)NC(=O)[C@H](CO)NC(=O)[C@H](CO)NC(=O)[C@@H](NC(=O)[C@H](CC(=O)O)NC(=O)[C@H](CO)NC(=O)[C@@H](NC(=O)[C@H](Cc1ccccc1)NC(=O)[C@@H](NC(=O)CNC(=O)[C@@H](/C=C/[C@H](C)NC(=O)[C@@H](N)Cc1c[nH]cn1)CCC(=O)O)[C@@H](C)O)[C@@H](C)O)C(C)C)C(=O)N[C@@H](CCC(=O)O)C(=O)N[C@@H](Cc1ccccc1)C(=O)N[C@H](C(=O)N[C@@H](C)C(=O)N[C@@H](Cc1c[nH]c2ccccc12)C(=O)N[C@@H](CC(C)C)C(=O)N[C@H](C(=O)N[C@@H](CCCNC(=N)N)C(=O)NCC(=O)N[C@@H](CCCNC(=N)N)C(=O)NCC(=O)O)C(C)C)[C@@H](C)CC)C(=O)O` [N-ε^26-[γ-L-glutamyl(N-α-hexadecanoyl)]-[Q-linker-a8-9,Arg34]GLP-1-(7-37)-peptide]: in data set [1], the share remaining at 1 h, 0.5 nmol/L was 98% and the share remaining at 24 h, 0.5 nmol/L stood at 98%.

With GLP-1(7-37)OH, the biological half-life in data set [2] is 3 to 5 minutes. For `CCCCCCCCCCCCCCCC(=O)N[C@@H](CCC(=O)NCCCC[C@H](NC(=O)[C@H](C)NC(=O)[C@H](C)NC(=O)[C@H](CCC(N)=O)NC(=O)CNC(=O)[C@H](CCC(=O)O)NC(=O)[C@H](CC(C)C)NC(=O)[C@H](Cc1ccc(O)cc1)NC(=O)[C@H](CO)NC(=O)[C@H](CO)NC(=O)[C@@H](NC(=O)[C@H](CC(=O)O)NC(=O)[C@H](CO)NC(=O)[C@@H](NC(=O)[C@H](Cc1ccccc1)NC(=O)[C@@H](NC(=O)CNC(=O)[C@H](CCC(=O)O)N[C@@H]([C@H](C)NC(=O)[C@@H](N)Cc1c[nH]cn1)C(F)(F)F)[C@@H](C)O)[C@@H](C)O)C(C)C)C(=O)N[C@@H](CCC(=O)O)C(=O)N[C@@H](Cc1ccccc1)C(=O)N[C@H](C(=O)N[C@@H](C)C(=O)N[C@@H](Cc1c[nH]c2ccccc12)C(=O)N[C@@H](CC(C)C)C(=O)N[C@H](C(=O)N[C@@H](CCCNC(=N)N)C(=O)NCC(=O)N[C@@H](CCCNC(=N)N)C(=O)NCC(=O)O)C(C)C)[C@@H](C)CC)C(=O)O` [N-ε^26-[γ-L-glutamyl(N-α-hexadecanoyl)]-[Q-linker-d8,Arg34]GLP-1-(7-37)-peptide], in data set [1], the amount remaining at 1 h, 0.5 nmol/L was found to be 98% and the share remaining at 24 h, 0.5 nmol/L was determined as 98%. On to `CC[C@H](C)[C@H](NC(=O)[C@H](Cc1ccccc1)NC(=O)[C@H](CCC(=O)O)NC(=O)[C@H](CCCCN)NC(=O)[C@H](C)NC(=O)[C@H](C)NC(=O)[C@H](CCC(N)=O)NC(=O)CNC(=O)[C@H](CCC(=O)O)NC(=O)[C@H](CC(C)C)NC(=O)[C@H](Cc1ccc(O)cc1)NC(=O)[C@H](CO)NC(=O)[C@H](CO)NC(=O)[C@@H](NC(=O)[C@H](CC(=O)O)NC(=O)[C@H](CO)NC(=O)[C@@H](NC(=O)[C@H](Cc1ccccc1)NC(=O)[C@@H](NC(=O)CNC(=O)[C@H](CCC(=O)O)NC(=O)[C@H](C)NC(=O)[C@@H](N)Cc1c[nH]cn1)[C@@H](C)O)[C@@H](C)O)C(C)C)C(=O)N[C@@H](C)C(=O)N[C@@H](Cc1c[nH]c2ccccc12)C(=O)N[C@@H](CC(C)C)C(=O)N[C@H](C(=O)N[C@@H](CCCCN)C(=O)NCC(=O)N[C@@H](CCCNC(=N)N)C(N)=O)C(C)C` [GLP-1, reference compound], for which, in data set [3], the EC50 was found to be 0.06 nM.
